# In US8026231B2, “Aminothiolester compounds, pharmaceutical and cosmetic compositions containing same and uses thereof” (CNRS, priority 2000, dated 2011):
# What was measured:
# L1210 cells = experiment: Growth of L1210 cells (viable cell count, Trypan blue); type: cell-based, mouse; settings: 50% inhibition of growth
# Experimental: (§1) The cells used correspond to various cell lines: human lung normal embryonic fibroblasts (MRC5), mouse melanoma cells (B16), mouse lymphocytic leukaemia cells (L1210) and L1210T cells obtained by infecting L1210 cells with a retroviral vector bearing human ALDH1 cDNA.
# The procedure used for the tests on the L1210 cells is as follows: • 10^5 cells are incubated in the various wells of a microplate in 1 ml of culture medium. After incubating for 4 hours, the test compounds are added to the wells containing the L1210 cells.
# For the L1210 cells, the growth is measured by counting the viable cells in the presence of 0.1% Trypan blue.
# (§2) The IC50 concentration is the concentration corresponding to a 50% inhibition of growth of the cells.
# DU145 cells [1] = experiment: Growth of DU145 cells (protein and DNA assay, 72 h); type: cell-based, human; settings: 50% inhibition of cell growth
# Experimental: The cells used correspond to two cell lines: metastatic cells of human prostate cancer (DU145) and murine lymphoid cells transfected with the human bcl2 gene (BAF3 bcl2).
# The procedure used for the tests on DU145 is as follows: • 10^5 cells are incubated in the various wells of a microplate in 1 ml of culture medium.
# (§3) The compounds are added 4 hours after placing the cells in the wells.
# After 72 hours, the cells are removed at different times. The DU145 cells are washed twice with PBS and recovered directly with 0.1M sodium chloride.
# (§4) The effect on the growth of the DU145 cells is measured by protein assay according to the Lowry method (Lowry, O. H., Rosenbrough, N. J., Farr, A. L. and Randall, J. Biol. Chem. 193, 265-275, (1951)) and DNA assay by the Hoechst method (West, D. C., Sattar, A. and Kumar, S., Anal. Biochem. 147, 289-295, (1985)).
# The IC50 concentration is the concentration corresponding to a 50% inhibition of cell growth.
# BAF3-bcl2 B14 cells = experiment: Apoptosis induction (DNA fragmentation) in BAF3-bcl2 clone B14, 24 h; type: cell-based, mouse
# Experimental: (§5) The BAF3-bcl2 cells correspond to BAF3 cells (mouse lymphocyte cells) tranfected with the bcl2 gene. Among these cells, four lines known as H16, G18, B14 and G21 overexpress the bcl2 gene.
# (§6) Whereas the BAF3-b0 cells undergo apoptosis (more than 80% of the cells) in the absence of interleukin 3 (IL3) in 16 hours [according to Collins, M. K. L., Marvel, J., Malde, P. & Lopez-Rivas, A., J. Exp. Med. 176, 1043-1051, (1992)], the BAF3-bcl2 cells show no sign of apoptosis in the absence of IL3. They are thus apoptosis-resistant.
# (§7) The procedure which was used is as follows: • The BAF3-b0 or BAF3-bcl2 cells, cultured in the presence of IL3, were labelled by a method adapted from that disclosed in Wright, S. et al., J. of Cell. Biochem. 48, 344-355, (1992).
# (§8) 10^5 cells/ml were incubated with 4.62 KBq.ml^−1 [^3H]-thymidine for 40 hours at 37° C. After two washes with culture medium, 2.5×10^6 cells were cultured in the presence of the test compound.
# (§9) After incubating for 24 hours, these cells were recovered by centrifugation at 400×g for 5 minutes and washed 3 times with PBS buffer. The cells recovered in the pellet were lysed in 2 ml of 0.1% Triton X-100, 20 mM EDTA, 5 mM Tris pH 8 and centrifuged at 30 000×g at 4° C. for 30 minutes.
# (§10) The supernatants were recovered and the pellets dissolved in 0.3 ml of 0.5N NaOH.
# (§11) Aliquots of the culture medium (1 ml), of the supernatant (0.3 ml) and of the dissolved pellet (0.1 ml) were assayed in a scintillation counter.
# (§12) The percentage of DNA fragments is calculated in the following way:
# (§13) The percentage of fragmentation of the DNA is a direct measure of the apoptosis which the cells have undergone.
# B16 cells = experiment: Growth of B16 cells (protein and DNA assay); type: cell-based, mouse; settings: 50% inhibition of growth
# Experimental: as §1
# The procedure used for the tests on the B16 and MRC5 cells is as follows: • The test compounds are added 4 hours after placing the cells in the wells. After 72 hours, the cells are removed at different times. The B16 and MRC5 cells are washed twice with PBS and recovered directly with 0.1M sodium chloride.
# as §4, with “B16 and MRC5” for “DU145”
# as §2
# R7 cells = experiment: Growth of R7 cells which overexpress the MDR gene; type: cell-based; settings: increasing concentrations, 72 h, FIGS. 7 and 8
# Experimental: 10^5 cells were incubated in the various wells of a microplate in 1 ml of culture medium. These are R7 cells, on the one hand, and K562 cells, on the other hand.
# After incubating for 4 hours, the test compound (compound of Example 1 according to the invention, on the one hand, and daunorubicin, on the other hand) was added to the wells containing the cells.
# After 72 hours, the cells were collected at different times.
# The growth of the cells was measured by counting the viable cells in the presence of 0.1% Trypan blue.
# FIGS. 7 and 8 respectively represent the percentage inhibition (I %) by daunorubicin and the compound of Example 1 on the growth of the R7 and K562 cells, obtained at increasing concentrations C. The results obtained with the K562 cells are symbolized by ♦ and those obtained with the R7 cells are symbolized by ▴.
# BAF3-b0 cells = experiment: Apoptosis induction (DNA fragmentation) in BAF3-b0 cells, 24 h; type: cell-based, mouse
# Experimental: as §5
# Hereinbelow, the cells known as BAF3-b0 correspond to BAF3 cells not transfected with the bcl2 gene.
# as §6, §7, §8, §9, §10, §11, §12, §13
# DU145 cells [2] = experiment: Combination of two compounds of the invention on the growth of DU145 cells; type: cell-based, human; settings: 2 μM
# Experimental: 10^5 normal human prostate cells or 10^5 cancerous human prostate cells (DU145) are incubated in various wells of a microplate in 1 ml of culture medium.
# as §3
# After 72 hours, the cells are removed at different times. The DU145 cells or the normal cells are washed twice with PBS and recovered directly with 0.1M sodium chloride.
# as §4, with “DU145 cells or the normal” for “DU145”
smiles,measurement,setting,value
"CSC(=O)C#CC(C)(C)N(C)C [Example 1, S-methyl 4-dimethyl-amino-4-methyl-2-pentynethioate]",IC50,L1210 cells,1.2 µM
same,IC50,DU145 cells [1],5.9 µM
same,DNA fragmentation (%),"BAF3-bcl2 B14 cells; B14, 1 μM",0%
same,DNA fragmentation (%),"BAF3-bcl2 B14 cells; B14, 2 μM",2.0%
same,DNA fragmentation (%),"BAF3-bcl2 B14 cells; B14, 4 μM",44.1%
same,DNA fragmentation (%),"BAF3-bcl2 B14 cells; B14, 8 μM",90.0%
same,IC50,B16 cells,0.8 µM
same,Inhibition of the growth of the R7 cells,R7 cells,very strongly inhibits the growth of the R7 cells
same,DNA fragmentation (%),"BAF3-b0 cells; b0, 1 μM",5.0%
same,DNA fragmentation (%),"BAF3-b0 cells; b0, 2 μM",10.6%
same,DNA fragmentation (%),"BAF3-b0 cells; b0, 4 μM",46.4%
same,DNA fragmentation (%),"BAF3-b0 cells; b0, 8 μM",71.1%
same,% Inhibition of DU145 cells,DU145 cells [2],21.3%
